For one assay, the system named is B. japonicum strain 532C. As to the kind of experiment: Sorbitol versus trehalose: on-seed rhizobial viability on soybean seed. Particulars: trehalose 30% w/v vs sorbitol 20% w/v; seeds at 18-20° C., time zero and 7 days, FIG. 13. It counts as cell-based. On the procedure: An experiment was run to determine whether sorbitol or trehalose is better suited for application to soybean seeds with B japonicum. The following steps were performed: • 1. B. japonicum strain 532C was grown for 5 days in 1.5×Bj2 (a soybean fermentation medium) at 30° C. and 165 rpm. • 2. Either sorbitol (20% w/v) or trehalose (30% w/v) was added to the culture, and the cultures were maintained for 5 days at 30° C., 165 rpm. • 3. 2.7 ml/kg of either sorbitol or trehalose amended culture was applied to soybean seed. Seeds were evenly coated. • 4. Seeds were stored at 18-20° C. • 5. On-seed rhizobial viability was monitored at time zero and after 7 days

A further assay concerns Rhizobium leguminosarum. Description: Sugar/sugar alcohol study: bacteria counts on pea seeds. The class given is cell-based. Particulars: 15° C., sorbitol vs sucrose vs trehalose. As for the experimental part: Partially desiccated inoculant products were prepared by first growing Rhizobium leguminosarum in a Rhizobium leguminosarum bv. viceae culture medium. Two different culture mediums were used, 1×R1 and 1.5×R1, which are pea and lentil fermentation medium. The 1.5×R1 has 50% more media components than 1×R1. After 3 days culture growth, a sugar or a sugar alcohol was aseptically added to the culture. The amount of sugar or sugar alcohol added to the culture is shown in final concentration (weight/volume) in Table 9 below. The culture was then allowed a 2 day conditioning phase during which the culture continued to grow thereby creating the partially desiccated inoculant product. The partially desiccated inoculant product was then applied to pea seeds at a rate of 3.1 L inoculant product/1136 kg seed. The seeds were then mixed in a bag by shaking to evenly distribute the inoculant product on the seeds. The seeds were then stored at 15° C.
The bacteria counts were performed in a similar manner as the previous examples. That is, 50 seeds were put in 100 ml of phosphate buffer in a dilution bottle. The bottle was shaken for 5 minutes. 10 fold serial dilutions were made and 0.1 ml of proper dilution was spread onto nutrient medium plates. The viable bacteria cells on seed were calculated based on the colony numbers on the plates.

For `OC[C@H]1O[C@H](O[C@H]2O[C@H](CO)[C@@H](O)[C@H](O)[C@H]2O)[C@H](O)[C@@H](O)[C@@H]1O` [trehalose], in the assay with B. japonicum strain 532C, the “suitability for application to B japonicum on soybean seeds (on-seed rhizobial viability)” value was “better suited than sorbitol”.

On to `OC[C@@H](O)[C@@H](O)[C@H](O)[C@@H](O)CO` [sorbitol], for which the “extension of on-seed shelf life of Rhizobium leguminosarum, ranking of sugars/sugar alcohols tested” value in the assay on Rhizobium leguminosarum is on record as “top performing”.

These data come from patent publication US8020343B2, “Enhanced shelf life and on seed stabilization of liquid bacterium inoculants” (Becker Underwood Inc., priority 2004, dated 2011).
